The term IC50 denotes the concentration needed to halve the response being measured. Low values mean greater potency, high ones weaker potency. What is called microsomal CLint is a measure of how fast metabolising enzymes remove a compound, apart from limits set by blood flow. A low value points to greater metabolic stability. As usually defined, the fraction remaining is what is left of the initial amount, in per cent. Read a low fraction remaining as a greater loss. One may read the IC90 as the concentration at which the effect reaches the 90% level. A higher IC90 goes with weaker potency. The half-life is the time needed for the level to fall by half in the phase considered. Low readings indicate rapid decline, high ones slow decline. A word on the chromatographic logD: it is a lipophilicity value derived from retention on a column. Low values mean lower lipophilicity, high ones higher lipophilicity. For orientation: kinetic solubility means solubility judged after dilution from a stock solution rather than from solid. By Papp A→B is commonly meant how fast a substance crosses the layer from the apical side. A lower Papp A→B goes with poor permeation.

The values that follow come from ChEMBL document CHEMBL2448688, “Selection and optimization of hits from a high-throughput phenotypic screen against Trypanosoma cruzi. Exported from HEOS 25-Oct-2013. See also related datasets CHEMBL3137440 and CHEMBL3137386”.

≈ marks a conversion by molar mass, not a printed value. Where “and” joins values, the source holds several entries; their conditions need not be identical. Identical values can stand only once.

Data set [1] relates to Trypanosoma cruzi. The data set is described as follows: (§1) DNDI: Chagas in Vitro. The class given is functional, organism-based, Tulahuen C4 (LacZ).
Data set [2] in a line: in vitro. As to conditions: human, microsomes.
The nature of data set [3]: (§2) DNDI: Stability, 4 hour. The class given is ADME, cell-free. As to conditions: mouse, plasma.
Data set [4] is described as follows: DNDI: Cytotoxicity in vitro, against rat skeletal myoblast (L-6) cells. As to conditions: L-6 cells (skeletal myoblasts), IC50.
The target of data set [5] is Cytochrome P450 3A4 (Homo sapiens, UniProt P08684). The data set is described as follows: DNDI: Human CYP3A4 inhibition determined using 6b-hydroxylation of testosterone.
Chain of Cytochrome P450 3A4 (P08684 whole entry): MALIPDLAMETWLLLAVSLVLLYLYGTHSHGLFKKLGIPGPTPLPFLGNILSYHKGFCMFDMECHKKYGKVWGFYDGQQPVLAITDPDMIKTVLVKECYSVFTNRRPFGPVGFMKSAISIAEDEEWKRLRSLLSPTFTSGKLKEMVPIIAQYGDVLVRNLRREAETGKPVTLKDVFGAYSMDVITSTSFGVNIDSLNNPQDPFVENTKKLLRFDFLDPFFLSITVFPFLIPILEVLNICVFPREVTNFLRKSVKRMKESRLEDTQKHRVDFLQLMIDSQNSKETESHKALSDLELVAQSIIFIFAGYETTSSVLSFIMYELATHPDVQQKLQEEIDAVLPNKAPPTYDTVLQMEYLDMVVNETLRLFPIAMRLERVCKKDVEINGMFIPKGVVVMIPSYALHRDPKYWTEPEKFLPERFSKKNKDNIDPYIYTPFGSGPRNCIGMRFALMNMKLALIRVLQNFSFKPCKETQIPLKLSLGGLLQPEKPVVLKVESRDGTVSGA
Data set [6] can be described thus: as §2. Format: ADME, tissue-based. As to conditions: mouse, blood.
Data set [7] is described as follows: in vitro. Particulars: human, microsomes, EH.
In data set [8] the test system is Trypanosoma cruzi. The data set is described as §1. Format: functional, Tulahuen C4 (LacZ).
Data set [9] deals with Trypanosoma brucei rhodesiense. The data set is described as follows: (§3) DNDI: HAT in Vitro. The class given is functional, organism-based, ATCC 30027.
The nature of data set [10]: in vitro. Particulars: human, microsomes, t (1 / 2).
Data set [11] deals with Trypanosoma brucei brucei. Description: DNDI: HAT in vivo at 50 mg/kg, 4 adm days. The class given is functional, EATRO 110 po.
In data set [12] the test system is Trypanosoma brucei brucei. The data set is described as §3. The class given is functional, organism-based. Particulars: SBRI 427.
Data set [13] relates to Leishmania infantum. Description: DNDI: Leish (macro) in Vitro. Format: functional, organism-based, MHOM/MA(BE)/67.
The test system of data set [14] is Leishmania infantum. The data set is described as follows: DNDI: Leish In Vivo - % inhibition and MSD at 50 mg/kg, 5 days 2x. The class given is functional, MHOM/MA(BE)/67 Hamster-Early curative model po.
Data set [15] in a line: DNDI: Protein binding in rat plasma. Format: ADME, cell-free. As to conditions: read-out: % bound (converted).
The nature of data set [16]: DNDI: Lipophilicity (gLogD) at pH 3. As to conditions: buffer, pH 3, logD.
The nature of data set [17]: DNDI: Solubility in 0.01M HCl at pH 2 determined by nephelometry. As to conditions: for solubility kinetic: 0.01M HCl, pH 2, Kinetic.
Data set [18] in a line: in vitro. Particulars: mouse, microsomes.
The nature of data set [19]: in vitro. As to conditions: rat, microsomes.
The test system of data set [20] is Trypanosoma cruzi. The data set is described as follows: DNDI: Chagas in vivo at 20 mg/kg, 20 days 2x. The class given is functional, Tulahuen Swiss po.
The nature of data set [21]: DNDI: Permeability in CACO-2 cells at pH 7.4 (A to B). Format: ADME, cell-based. Particulars: human, Caco-2, pH 7.4. (Passage across Caco-2 layers is used to estimate intestinal permeability.)
Data set [22] can be described thus: DNDI: Metabolism. Format: ADME, Microsome. Particulars: rat, microsomes.
Data set [23] addresses T1, Cytochrome P450 1A2 (Homo sapiens, UniProt P05177).
T1 sequence (P05177 whole entry): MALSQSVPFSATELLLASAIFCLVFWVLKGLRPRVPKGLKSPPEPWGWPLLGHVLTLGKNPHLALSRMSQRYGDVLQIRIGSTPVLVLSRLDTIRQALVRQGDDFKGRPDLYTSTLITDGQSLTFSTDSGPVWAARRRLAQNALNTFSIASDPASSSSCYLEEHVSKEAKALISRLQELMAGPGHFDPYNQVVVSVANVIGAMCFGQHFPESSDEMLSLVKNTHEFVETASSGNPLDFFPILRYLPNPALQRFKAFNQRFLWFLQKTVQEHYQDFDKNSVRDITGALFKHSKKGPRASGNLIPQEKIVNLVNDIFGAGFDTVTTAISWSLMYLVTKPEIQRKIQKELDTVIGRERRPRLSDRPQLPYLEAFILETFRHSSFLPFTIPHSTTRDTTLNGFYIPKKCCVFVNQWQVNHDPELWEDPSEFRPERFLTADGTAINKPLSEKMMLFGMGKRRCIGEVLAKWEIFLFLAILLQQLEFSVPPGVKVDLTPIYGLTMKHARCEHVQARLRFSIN

Data set [24] can be described thus: in vitro. As to conditions: rat, hepatocytes.
Data set [25] deals with Cytochrome P450 2D6 (Homo sapiens, UniProt P10635).
Chain of Cytochrome P450 2D6 (P10635 whole entry): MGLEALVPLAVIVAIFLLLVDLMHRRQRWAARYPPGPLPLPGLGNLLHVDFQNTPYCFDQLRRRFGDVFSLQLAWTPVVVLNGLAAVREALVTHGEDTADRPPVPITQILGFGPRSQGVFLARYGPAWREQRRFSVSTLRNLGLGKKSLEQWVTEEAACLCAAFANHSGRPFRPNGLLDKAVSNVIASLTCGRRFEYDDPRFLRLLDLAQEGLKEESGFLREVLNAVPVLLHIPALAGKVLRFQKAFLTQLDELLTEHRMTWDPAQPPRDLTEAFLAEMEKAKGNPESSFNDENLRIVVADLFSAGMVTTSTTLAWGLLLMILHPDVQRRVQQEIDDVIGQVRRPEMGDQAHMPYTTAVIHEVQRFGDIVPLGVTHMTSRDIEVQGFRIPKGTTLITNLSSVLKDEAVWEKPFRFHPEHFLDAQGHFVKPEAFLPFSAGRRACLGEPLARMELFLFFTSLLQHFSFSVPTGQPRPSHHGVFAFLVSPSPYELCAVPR
Data set [26] in a line: DNDI: Lipophilicity (gLogD) at pH 7.4. As to conditions: buffer, pH 7.4, logD.
The nature of data set [27]: in vitro. As to conditions: rat, microsomes. This is another data set of the same source.
Data set [28] addresses Cytochrome P450 2C19 (Homo sapiens, UniProt P33261).
Data set [29] is described as follows: in vitro. Particulars: mouse, microsomes. The source holds these as a separate data set.
Data set [30] in a line: DNDI: Protein binding in mouse plasma.
Data set [31] concerns the target Cytochrome P450 2C9 (Homo sapiens, UniProt P11712).
For data set [32], the system named is Trypanosoma cruzi. The data set is described as follows: DNDI: Chagas in vivo at 50 mg/kg, 20 days 1x. The class given is functional, Tulahuen Swiss po.
The nature of data set [33]: in vitro. Particulars: mouse, microsomes. The source holds these as a separate data set.
The nature of data set [34]: in vitro. Particulars: rat, hepatocytes. The source holds these as a separate data set.
Data set [35] is described as follows: in vitro. Particulars: rat, microsomes. This is another data set of the same source.
Data set [36] concerns Trypanosoma cruzi. The data set is described as follows: DNDI: Chagas in vivo at 20 mg/kg, 20 days 1x. Format: functional, Tulahuen Swiss po.
The conditions of data set [37]: human, microsomes.
For data set [38] the following is noted: human, microsomes. This is another data set of the same source.
Data set [39] in a line: DNDI: Solubility in phosphate buffer at pH 6.5 determined by nephelometry. Particulars: for solubility kinetic: phosphate buffer, pH 6.5, Kinetic.
For data set [40] the following is noted: human, microsomes. The source holds these as a separate data set.
Setting [41] is: Trypanosoma cruzi, Tulahuen C4 (LacZ).

Chain of Cytochrome P450 2C9 (P11712 whole entry): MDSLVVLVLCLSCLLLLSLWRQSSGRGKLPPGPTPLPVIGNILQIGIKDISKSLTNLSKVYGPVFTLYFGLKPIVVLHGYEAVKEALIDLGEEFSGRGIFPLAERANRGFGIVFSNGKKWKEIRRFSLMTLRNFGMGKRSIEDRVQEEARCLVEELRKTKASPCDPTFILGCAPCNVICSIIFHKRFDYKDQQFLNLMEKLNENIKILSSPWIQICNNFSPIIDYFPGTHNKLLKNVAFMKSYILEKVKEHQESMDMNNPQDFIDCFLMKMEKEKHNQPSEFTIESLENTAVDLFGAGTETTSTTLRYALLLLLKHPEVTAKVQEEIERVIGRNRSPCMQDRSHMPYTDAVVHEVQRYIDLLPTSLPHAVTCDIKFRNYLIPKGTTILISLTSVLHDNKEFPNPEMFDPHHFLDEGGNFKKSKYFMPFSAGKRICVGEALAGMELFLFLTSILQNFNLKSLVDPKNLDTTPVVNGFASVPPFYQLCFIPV
Chain of Cytochrome P450 2C19 (P33261 whole entry): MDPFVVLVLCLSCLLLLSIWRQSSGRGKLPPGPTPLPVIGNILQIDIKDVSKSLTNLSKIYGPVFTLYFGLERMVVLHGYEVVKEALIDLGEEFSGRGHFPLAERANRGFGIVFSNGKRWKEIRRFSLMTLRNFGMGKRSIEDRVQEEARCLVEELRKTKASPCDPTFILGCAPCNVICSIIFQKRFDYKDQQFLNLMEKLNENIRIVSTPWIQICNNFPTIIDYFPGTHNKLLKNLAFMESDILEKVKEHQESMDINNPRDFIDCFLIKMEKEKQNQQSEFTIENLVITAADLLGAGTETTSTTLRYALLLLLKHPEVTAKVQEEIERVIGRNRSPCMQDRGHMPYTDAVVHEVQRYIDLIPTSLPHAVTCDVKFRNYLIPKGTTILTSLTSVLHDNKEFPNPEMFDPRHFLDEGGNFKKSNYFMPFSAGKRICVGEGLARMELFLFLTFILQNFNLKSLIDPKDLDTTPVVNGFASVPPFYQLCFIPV

Regarding `CCOC(=O)c1ccc(-n2ccnc2)c(NC(=O)c2cnc(-c3ccccc3)nc2)c1`, the IC50 in data set [1] (setting [41]) was 3 nM; in data set [4] it was over 100000 nM; in data set [5], over 20000 nM; in data set [9] (Trypanosoma brucei, ATCC 30027), over 10000 nM. The molecule further gave a microsomal CLint in data set [2] of 11 µL/min/mg. Also, the fraction remaining at 4 h in data set [3] stood at 1.8%; in [6], 0.4%. In addition, the hepatic extraction ratio in data set [7] amounted to 0.38. Besides, the concentration for an effect of 90% (IC90) in [8] (setting [41]) worked out at 37 nM. Also, the half-life in [10] is 2.67 h.
For the molecule `CN1CCC(NCC(O)COc2ccc3cc(Br)ccc3c2)CC1` (stereo not drawn), the 50% inhibitory concentration (IC50) in data set [1] was 853 nM and 3660 nM and 1930 nM; in data set [12], 53 nM; in [13], 426 nM and 198 nM and 500 nM; in [9] it was 28 nM and 74.5 nM and 57 nM. Besides, the MSD in [11] is 7 days. Also, the 90% effect concentration (IC90) in data set [8] was 5670 nM and > 1000 nM and 8200 nM. The “% inhibition in bone-marrow” value in [14] came out at 41.4%. In data set [14], the “% inhibition in liver” value is listed as 26.8%. The “% inhibition in spleen” value in data set [14] turned out to be 44.9%.
Regarding `N#Cc1ccc(-n2ccnc2)c(NC(=O)c2cnc(-c3ccccc3)s2)c1`, the fraction unbound in data set [15] was 0.043; in data set [30], 0.064. Also, the half-inhibitory concentration (IC50) in data set [1] is 11.5 nM and 6.8 nM and 7 nM; in data set [1] (setting [41]) it was 6 nM; in data set [4], over 100000 nM; in data set [9] (Trypanosoma brucei, ATCC 30027), over 10000 nM; in [23] it was over 20000 nM; in data set [25] it was 2700 nM. Further, the IC50 in [28] is 15900 nM; in data set [31], over 20000 nM. Moreover, the chromatographic logD in data set [16] came to 2.1; in [26] it was 2.8. Besides, the microsomal CLint amounted to 11 µL/min/mg in data set [2], 31 µL/min/mg in data set [18] and 24 µL/min/mg in [27]. This molecule returned a kinetic solubility in [17] of over 100 µg/mL. Besides, the half-life in [19] was found to be 1.22 h; in [10], 2.53 h; in data set [29] it was 0.933 h. This molecule showed a PCR cure rate in data set [20] of 0%. Moreover, the “Parasitemia clearance after immunosuppression” value in [20] is on record as 0%. Moreover, the “Parasitemia clearance after treatment” value in data set [20] is recorded as 100%. Moreover, in data set [21], the apparent permeability from apical to basolateral (Papp A→B) stood at 82 ×10⁻⁶ cm/s. In data set [22], the CLblood is listed as 25 mL/min/kg. Moreover, in [8], the IC90 is 20.5 nM and 47 nM and > 100 nM. The CLhep predicted in [24] is 17.2 mL/min/kg.
For `CO/N=C(\C)c1ccc(-n2ccnc2)c(NC(=O)c2cnn(-c3ccccn3)c2)c1`, the fraction unbound in data set [15] was 0.008; in data set [30], 0.022. The PCR cure rate in data set [32], in data set [20] and in data set [36] was 0% throughout. Also, the “Parasitemia clearance after immunosuppression” value in [32], in data set [20] and in data set [36] was 0% in each case. For the same molecule, the entries for the “Parasitemia clearance after treatment” value in data set [32], in data set [20] and in [36] were 20%, 80% and 0%, respectively. Further, the IC50 in [1] was 6 nM; in data set [1] (setting [41]) it was 6.7 nM; in [4], over 100000 nM; in [5], 1400 nM. The microsomal CLint in data set [2] came to 16 µL/min/mg; in [18] it was 83 µL/min/mg; in data set [27], 27 µL/min/mg. In addition, the half-life in data set [19] worked out at 1.07 h; in data set [10], 1.8 h; in [29] it was 0.35 h. Further, the hepatic extraction ratio was determined as 0.78 in data set [33], 0.38 in [7], 0.51 in [34] and 0.47 in data set [35]. Besides, the concentration for an effect of 90% (IC90) was 14 nM in data set [8] and 16 nM in data set [8] (setting [41]). Besides, the CLhep predicted in data set [24] is 34.3 mL/min/kg.
On to `CC(=O)N(Cc1cccnc1)c1ccc(-c2nc3ccccc3s2)cc1`, for which the EH in data set [37] is recorded as 0.74 none. The chromatographic logD is 2.18 in [16] and over 3.94 in data set [26]. Besides, the intrinsic clearance (microsomal CLint) in data set [2] turned out to be 98.3 µL/min/mg. The solubility (kinetic) in [17] came to 71 µg/mL (≈ 198 µM); in data set [39], 11.9 µg/mL (≈ 33 µM). Moreover, the “t (1 / 2)” value in [38] worked out at 24 min. The CLint in vitro in data set [40] turned out to be 72 µL/min/mg. The half-life in data set [10] came out at 0.293 h.
In turn, `Cl.NCC(=O)N(Cc1cccnc1)c1cc(F)cc(-c2nc3ccccc3s2)c1` had an EH in data set [37] of 0.54 none. In addition, the IC50 was 49 nM in [1] (setting [41]) and over 100000 nM in data set [4]. Besides, the solubility (kinetic) in data set [17] is 57.5 µg/mL; in data set [39] it was 53 µg/mL. Further, the Kinetic in data set [17] (buffer, pH 2) was over 100 µg/mL; in data set [39] (buffer, pH 6.5), over 100 µg/mL. For the same molecule, in [38], the “t (1 / 2)” value is 58 min and 26.3 min. This molecule also yielded an IC90 in [8] (setting [41]) of 125 nM. In data set [40], the CLint in vitro is 66 µL/min/mg and 30 µL/min/mg. In data set [26], this molecule yielded a chromatographic logD of 2.29.
